{"source": "paper PMC12348844", "about": "“Anti-Trypanosoma cruzi Potential of New Pyrazole-Imidazoline Derivatives” (Molecules, 2025)", "key": {"[1]": {"test_system": "T. cruzi Dm28c-Luc intracellular amastigotes", "test": "Anti-T. cruzi in vitro assay, intracellular amastigotes in Vero cells (luminescence)", "assay_type": "cell-based, Trypanosoma cruzi", "settings": "Trypanosoma cruzi", "experimental": "(§1) The genetically modified Trypanosoma cruzi, clone Dm28c (TcI), expressing luciferase (Dm28c-Luc), was kindly provided by Dr. Cristina Henriques from Oswaldo Cruz Institute—Fiocruz. The parasites were maintained using Vero cell cultures in RPMI 1640 medium enriched with 10% FBS. At 4 days post-infection (dpi), the trypomastigotes released into the culture supernatant were harvested, subjected to centrifugation at 800× g for 20 min at 4 °C, and quantified with a Neubauer chamber. The isolated trypomastigotes were subsequently used for phenotypic screening, drug efficacy assessments employing a 3D cardiac model, washout experiments to evaluate reversibility, drug combination studies, and enzymatic assays.\nTo evaluate the effect of pyrazole-imidazoline derivatives against intracellular amastigotes, Vero cells (1.5 × 10^4 cells/well) were cultured in a white 96-well plate with a clear bottom and subsequently infected with T. cruzi Dm28c-Luc at a 10:1 parasite-to-host cell ratio for 24 h. […] Parasite viability was measured by luminescence following the addition of luciferin (300 µg/mL). Background measurements (non-infected cultures incubated with luciferin, as well as luciferin-only controls) were performed to ensure the signal specifically originates from viable parasites. The IC50 and IC90 values, denoting the concentrations that achieve 50% and 90% reductions in viable parasites, respectively, were calculated using GraphPad Prism 8.2.1 software. Additionally, the selectivity index (SI) was calculated as the cytotoxic concentration (CC50) ratio in mammalian cells to the IC50 against T. cruzi, providing insight into the therapeutic window. Potency against intracellular amastigotes was evaluated using the formula 6—Log10 (IC50)."}, "[2]": {"test": "Cytotoxicity assay, Vero cells (CellTiter-Glo)", "assay_type": "cell-based", "settings": "African green monkey, mean ± SD", "experimental": "Vero cells, obtained from the Rio de Janeiro Cell Bank (BCRT code 0245) and maintained through weekly subculturing with a dissociation solution containing 0.25% trypsin-EDTA, initiated once the monolayer reached an 80–100% confluence. Following harvesting, the cells were washed and resuspended in RPMI 1640 medium enriched with 10% fetal bovine serum (FBS). Cultures were maintained at 37 °C in a 5% CO2-humidified incubator. These cultures were used for drug screening assays and for producing culture-derived trypomastigotes of T. cruzi.\nCytotoxicity assays were performed using Vero cells, which were seeded at a density of 1.5 × 10^4 cells per well in white 96-well plates with clear bottoms. Following a 24 h adhesion period, the cultures were incubated at 37 °C in a 5% CO2 atmosphere. […] After 72 h of incubation, cell viability was assessed by adding CellTiter-Glo reagent (Promega Corporation, Madison, WI, USA), which induces cell lysis and reacts with the released ATP to produce luminescence. The resulting luminescence was measured using a Glomax Multi-Detection plate reader (Promega Corporation, Madison, WI, USA). The half-maximal inhibitory concentration (CC50) for cell viability was then calculated using GraphPad Prism software version 8.2.1."}, "[3]": {"test_system": "intracellular amastigotes of T. cruzi", "test": "Drug combination with Bz, fixed-ratio isobologram, intracellular amastigotes", "assay_type": "cell-based", "settings": "Trypanosoma cruzi; proportion 1k:Bz 0:5, 72 h; read-out: IC50 (Mean ± DP) in combination assay", "experimental": "The isobologram approach assessed the interaction between Bz and the promising candidate in intracellular amastigotes of T. cruzi. Vero cell cultures infected with T. cruzi (Dm28c-Luc) were treated for 72 h with various concentrations of combinations of Bz and the promising candidate, specifically at ratios of 5:0; 4:1; 3:2; 2:3; 1:4 and 0:5. The maximum concentration of each compound was established based on their IC50 values, ensuring both reached the fourth dilution in the serial dilution setup (1:3), culminating in a total of seven dilutions. After 72 h of treatment, parasite viability was measured by luminescence in a Glomax Multi-Detection plate reader (Promega Corporation, Madison, WI, USA) after incubation with luciferin. The IC50 values of each treatment combination were calculated individually, and the fractional inhibitory concentration index (FICI) was derived using the formula FICI = IC50 of the combination/IC50 of the compound alone. The overall FICI (ΣFICI) was calculated by summing the FICIs for both compounds in each combination group, while the average ΣFICI (xΣFICI) represented the overall mean across all combination groups. The xΣFICI values were then employed to classify the interaction as synergistic (xΣFICI ≤ 0.5), additive (0.5 < xΣFICI < 4), or antagonistic (xΣFICI > 4). […]"}, "[4]": {"test_system": "T. cruzi Dm28c-Luc trypomastigotes", "test": "Anti-T. cruzi in vitro assay, trypomastigotes (luminescence)", "assay_type": "cell-based", "settings": "Trypanosoma cruzi, 24 h, mean ± SD", "experimental": "as §1\nDrug susceptibility assays were performed on T. cruzi Dm28c-Luc, a genetically engineered parasite expressing luciferase. The drug screening used both trypomastigotes and intracellular amastigotes. Trypomastigotes (1 × 10^6 parasites/well) were added to white 96-well plates with clear bottoms. […] The luminescence was measured using a Glomax Multi-Detection plate reader (Promega Corporation, Madison, WI, USA)."}, "T. cruzi (Dm28c-Luc)": {"test_system": "T. cruzi (Dm28c-Luc)", "test": "Reversibility (washout) assay in T. cruzi-infected Vero cells", "assay_type": "cell-based, Trypanosoma cruzi", "experimental": "After treatment, the cultures were thoroughly washed, and parasite recrudescence was evaluated over an extended period of 10 days in RPMI medium supplemented with 10% fetal bovine serum (FBS). Culture supernatants were collected at intervals, and the luminescence signal indicative of trypomastigote release was assessed using a Glomax Multi-Detection plate reader (Promega Corporation, Madison, WI, USA) following the addition of luciferin every 2–3 days. At the experiment’s conclusion, the infection profile of the monolayer was also examined. Cells were fixed with PFA for 20 min at 4 °C, then stained with DAPI for microscopy analysis. Luminescence data were expressed in arbitrary luminescent units (A.L.U), and fluorescence images were acquired using the ImageXpress Micro XLS high-content screening (HCS) system (Molecular Devices, Sunnyvale, CA, USA)."}}, "note": "Read-outs that look alike come from different tables or passages of the source."}
{"molecule": "O=C(Cn1ccnc1[N+](=O)[O-])NCc1ccccc1", "note": "[Bz, Benznidazole, reference compound]", "values": [{"measurement": "IC50", "setting": "[1]; Vero, intracellular amastigotes, 6 − Log10(IC50), read-out: pIC50 (potency) (converted)", "value": 2.51, "unit": "µM"}, {"measurement": "IC90", "setting": "[1]; 72 h, Dm28c-Luc in Vero cells, mean ± SD", "value": "10.4 ± 0.5", "unit": "µM"}, {"measurement": "IC50", "setting": "[1]; 72 h, Dm28c-Luc in Vero cells, mean ± SD, read-out: Intracellular Amastigotes IC50", "value": "2.2 ± 0.4", "unit": "µM"}, {"measurement": "CC50 at 72 h", "setting": "[2]", "value": "> 500", "unit": "µM"}, {"measurement": "IC50", "setting": "[3]", "value": "2.3 ± 0.07", "unit": "µM"}, {"measurement": "IC50", "setting": "[4]", "value": "20.5 ± 1.8", "unit": "µM"}, {"measurement": "IC90", "setting": "[4]", "value": "> 100", "unit": "µM"}, {"measurement": "reduction of parasite load of cell monolayer at 21 dpi", "setting": "T. cruzi (Dm28c-Luc); 100 µM, 10 days treatment + 10 days washout", "value": 98.4, "unit": "%"}, {"measurement": "parasite load of cell monolayer at 21 dpi (luminescence)", "setting": "T. cruzi (Dm28c-Luc); 100 µM, untreated 5 × 10^5 A.L.U", "value": "8 × 10^3 A.L.U"}, {"measurement": "sterility of cultures in reversibility assay", "setting": "T. cruzi (Dm28c-Luc); 10 days treatment, tested conditions", "value": "failed to achieve sterility"}]}
